Data: patent publication US20070134185A1, “Use of dithiols in a hair-perming composition” (priority 2003, published 2007)

Experiments:
[1] = cited from earlier work
[2] = Permanent waving of hair locks with reducing lotion; conditions: reducing lotion 20.83 g Compound A1 per 100 g, pH = 7, 15 minutes on curled hair, fixing with hydrogen peroxide at 8 volumes pH=3
Experimental: A reducing lotion is prepared:
The above lotion is applied to locks of grey hair which is 90% white. Curls are produced using curlers. The lotion is allowed to act on the curled hair for 15 minutes. The hair is rinsed with water. A conventional fixing composition based on hydrogen peroxide (hydrogen peroxide at 8 volumes, pH=3), is applied. Another rinsing is carried out. The curlers are removed.

[3] = Oxidation dyeing of permanently waved hair; conditions: compared with identical permanent waving with thioglycolic acid instead of A1, at equivalent curliness

| Compound | solubility in water [1] | curliness [2] | colour after 7.44 CRESCENDO oxidation dye on permanently waved hair [3] |
| --- | --- | --- | --- |
| O=S(=O)(CCS)CCS [BMS, bis(2-mercaptoethyl)sulphone] | very sparingly soluble in water | – | – |
| CN(C(=O)CS)N(C)C(=O)CS [Compound A1] | – | Good curliness | closer to that obtained on non-permanently waved hair |
